Experimental data: patent US8623860B2, “Azetidine derivatives, pharmaceutical compositions and uses thereof” (Boehringer Ingelheim International GmbH, priority 2011, dated 2014)

Molecular target: human ACC2 (Homo sapiens (Human), UniProt O00763)
Assay: ACC2 assay, spectrophotometric 384 well assay (NADH-linked, coupled lactate dehydrogenase/pyruvate kinase reaction)
Type: biochemical
Settings: hACC2 construct lacking the 128 N-terminal amino acids; 25° C., 340 nm, 15 minutes
Protocol: Spectrophotometric 384 Well Assay
Malonyl CoA formation by acetyl CoA carboxylases is stoichometrically linked to the consumption of ATP. ACC2 activity is measured in a NADH-linked kinetic method measuring ADP generated during the ACC reaction using a coupled lactate dehydrogenase/pyruvate kinase reaction.
For biological testing, a human ACC2 construct which lacks the 128 amino acids at the N-terminus for increased solubility (nt 385-6966 in Genbank entry AJ575592) is cloned. The protein is then expressed in insect cells using a baculoviral expression system. Protein purification is performed by anion exchange.
All compounds are dissolved in dimethyl sulfoxide (DMSO) to a concentration of 10 mM.
Assay reactions are then carried out in 384-well plates, with hACC2 in an appropriate dilution and at final assay concentrations (f.c.) of 100 mM Tris (pH 7.5), 10 mM trisodium citrate, 25 mM KHCC3, 10 mM MgCl2, 0.5 mg/ml BSA, 3.75 mM reduced L-glutathione, 15 U/ml lactate dehydrogenase, 0.5 mM phosphoenolpyruvate, 15 U/ml pyruvate kinase, compounds at different concentrations at final DMSO concentrations of 1%.
The enzymatic reaction is then started by addition of a mixture of NADH, acetyl Coenzyme A (both 200 μM f.c.) and ATP (500 uM f.c.). The decrease of the optical density (slope S) is then determined at 25° C. at a wavelength of 340 nm over 15 minutes in a spectrophotometric reader.
Each assay microtiter plate contains wells with vehicle instead of compound as controls for the non-inhibited enzyme (100% CTL; ‘HIGH’) and wells without acetyl-CoA as controls for non-specific NADH degradation (0% CTL; ‘LOW’).
The slope S is used for calculation of % CTL=(S(compound)−S(‘LOW’))/(S(‘HIGH’)−S(‘LOW’))*100. Compounds will give values between 100% CTL (no inhibition) and 0% CTL (complete inhibition).
For IC50 value determination, the sample slope in the presence of the test compound after subtraction of the low controls (S(compound)−S(‘LOW’)) are used.
An IC50 value is derived from the compound slopes at different dosages after subtraction of the low controls (S(compound)−S(‘LOW’)) by non-linear regression curve fitting (equation y=(A+((B−A)/(1+((C/x)^D))))).
In the following table the activity expressed as IC50 (μM) of compounds according to the invention is presented wherein the IC50 values are determined in the ACC2 assay as described hereinbefore. The term “Ex.” refers to the example numbers according to the following experimental section.

Chain of human ACC2 (O00763 129-2458): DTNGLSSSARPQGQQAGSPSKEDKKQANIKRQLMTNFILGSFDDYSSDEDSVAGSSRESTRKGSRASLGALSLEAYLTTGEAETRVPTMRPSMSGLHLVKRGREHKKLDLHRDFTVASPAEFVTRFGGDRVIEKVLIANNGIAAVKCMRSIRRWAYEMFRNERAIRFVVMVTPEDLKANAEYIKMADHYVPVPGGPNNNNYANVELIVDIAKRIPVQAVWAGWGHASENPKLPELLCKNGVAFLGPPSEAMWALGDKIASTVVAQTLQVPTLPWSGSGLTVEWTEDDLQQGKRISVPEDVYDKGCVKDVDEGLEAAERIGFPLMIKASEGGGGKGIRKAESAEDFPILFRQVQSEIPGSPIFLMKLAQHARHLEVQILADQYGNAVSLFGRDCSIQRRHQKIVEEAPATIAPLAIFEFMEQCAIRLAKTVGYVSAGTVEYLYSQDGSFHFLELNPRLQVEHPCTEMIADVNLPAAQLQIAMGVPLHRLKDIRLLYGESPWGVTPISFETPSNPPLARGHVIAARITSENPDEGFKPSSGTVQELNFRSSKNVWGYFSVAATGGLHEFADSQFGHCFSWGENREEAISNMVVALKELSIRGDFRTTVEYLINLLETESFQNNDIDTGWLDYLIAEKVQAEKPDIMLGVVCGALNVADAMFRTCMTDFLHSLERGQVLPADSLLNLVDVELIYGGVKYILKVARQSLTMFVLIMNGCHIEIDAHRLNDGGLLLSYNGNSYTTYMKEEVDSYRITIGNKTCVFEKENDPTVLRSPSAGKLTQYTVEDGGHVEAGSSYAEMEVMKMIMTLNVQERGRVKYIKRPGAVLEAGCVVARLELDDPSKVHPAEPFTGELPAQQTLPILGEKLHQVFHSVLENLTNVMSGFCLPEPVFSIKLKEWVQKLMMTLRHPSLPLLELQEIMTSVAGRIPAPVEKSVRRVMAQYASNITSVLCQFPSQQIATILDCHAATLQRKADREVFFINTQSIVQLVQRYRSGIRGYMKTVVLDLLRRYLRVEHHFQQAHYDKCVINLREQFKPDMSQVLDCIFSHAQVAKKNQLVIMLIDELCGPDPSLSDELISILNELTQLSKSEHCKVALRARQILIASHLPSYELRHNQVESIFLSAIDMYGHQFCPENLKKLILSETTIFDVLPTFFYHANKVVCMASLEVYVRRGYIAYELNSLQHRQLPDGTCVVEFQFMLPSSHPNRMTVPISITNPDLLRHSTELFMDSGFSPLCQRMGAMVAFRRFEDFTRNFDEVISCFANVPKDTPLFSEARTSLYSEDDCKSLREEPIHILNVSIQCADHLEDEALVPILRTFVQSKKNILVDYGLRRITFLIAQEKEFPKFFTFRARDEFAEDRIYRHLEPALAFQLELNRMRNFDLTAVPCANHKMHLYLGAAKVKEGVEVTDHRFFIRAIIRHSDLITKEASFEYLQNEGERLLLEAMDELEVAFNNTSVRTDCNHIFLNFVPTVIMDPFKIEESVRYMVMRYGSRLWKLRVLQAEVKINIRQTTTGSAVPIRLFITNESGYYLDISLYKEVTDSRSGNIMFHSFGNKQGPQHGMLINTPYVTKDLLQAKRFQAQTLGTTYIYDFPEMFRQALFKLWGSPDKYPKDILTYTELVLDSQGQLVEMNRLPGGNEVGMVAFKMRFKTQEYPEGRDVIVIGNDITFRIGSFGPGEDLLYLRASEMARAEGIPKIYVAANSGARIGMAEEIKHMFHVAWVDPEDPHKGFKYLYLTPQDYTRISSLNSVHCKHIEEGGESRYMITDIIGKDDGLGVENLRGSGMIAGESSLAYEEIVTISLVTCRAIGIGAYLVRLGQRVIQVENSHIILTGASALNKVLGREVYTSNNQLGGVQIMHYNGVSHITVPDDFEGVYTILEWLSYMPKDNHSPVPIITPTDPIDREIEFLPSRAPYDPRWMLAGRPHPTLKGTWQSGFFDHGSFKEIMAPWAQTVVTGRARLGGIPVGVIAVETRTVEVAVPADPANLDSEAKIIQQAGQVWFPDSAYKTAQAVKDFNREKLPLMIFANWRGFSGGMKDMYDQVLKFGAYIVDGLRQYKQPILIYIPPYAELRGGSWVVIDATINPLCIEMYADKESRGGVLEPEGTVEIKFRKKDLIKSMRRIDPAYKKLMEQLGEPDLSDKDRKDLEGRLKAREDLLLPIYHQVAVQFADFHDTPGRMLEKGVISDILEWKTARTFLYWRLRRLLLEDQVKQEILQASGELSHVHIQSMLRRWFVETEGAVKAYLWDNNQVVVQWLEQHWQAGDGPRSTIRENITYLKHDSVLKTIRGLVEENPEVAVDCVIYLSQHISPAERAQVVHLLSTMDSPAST

SMILES | IC50 [µM]
CC(=O)NC(C)Cc1ccc(C2CN(c3ccc(-c4ccc(Cl)cc4)nn3)C2)cc1 (stereo not drawn) [Example 2.03] | 7.02
CC(=O)N[C@@H](C)c1ccc(C2CN(c3ccc(OC4CC4)cc3)C2)cc1 [Example 1.25] | 0.54
CC(=O)NC(C)Cc1ccc(C2CN(c3ccc(OC4CC4)cc3)C2)cc1 (stereo not drawn) [Example 1.03] | 0.34
CC(=O)NC(C)Cc1ccc(C2CN(c3cnc(NC4CCC4)nc3)C2)cc1 (stereo not drawn) [Example 1.07] | 5.63
CC(=O)NC(C)CCc1ccc(C2CN(c3ccc4c(c3)OCCO4)C2)cc1 (stereo not drawn) [Example 1.14] | 0.67
CCC(C)Nc1ncc(N2CC(c3ccc(C(C)NC(C)=O)cc3)C2)cn1 (stereo not drawn) [Example 1.22] | 2.08
CC(=O)NC(C)CCc1ccc(C2CN(c3ccc(OCC4CC4)cc3)C2)cc1 (stereo not drawn) [Example 1.17] | 0.19
CC(=O)N[C@@H](C)c1ccc(C2CN(c3ncc(OCC4CC4(F)F)cn3)C2)cc1 (stereo partly drawn) [Example 1.33] | 0.18
CC(=O)NC(C)c1ccc(C2CN(c3ccc(OC4CCCC4)cc3)C2)cc1 (stereo not drawn) [Example 1.21] | 0.34
C[C@H](NC(=O)CF)c1ccc(C2CN(c3ccc(OCC4CC4)cc3)C2)cc1 [Example 3.89] | 0.55
CC(=O)N[C@@H](C)c1ccc(C2CN(c3ccc(C(F)(F)F)cn3)C2)cc1 [Example 2.09] | 0.45
CC(=O)NC(C)CCc1ccc(C2CN(c3ncc4nc(-c5ccccc5)oc4n3)C2)cc1 (stereo not drawn) [Example 2.05] | 0.81
CCCOc1ccc(N2CC(c3ccc(CC(C)NC(C)=O)cc3)C2)c(OC)c1 (stereo not drawn) [Example 1.11] | 0.6
CC(=O)N[C@@H](C)c1ccc(C2CN(c3ccc4c(c3)OCCCO4)C2)cc1 [Example 1.29] | 0.78
CC(=O)NC(C)Cc1ccc(C2CN(c3ccc(OCC4CC4)cc3)C2)cc1 (stereo not drawn) [Example 1.04] | 0.63
CC(=O)N[C@@H](C)c1ccc(C2CN(c3ncc4nc(-c5ccsc5)oc4n3)C2)cc1 [Example 2.13] | 0.69
CC(=O)NC(C)Cc1ccc(C2CN(c3ccc4ncccc4c3)C2)cc1 (stereo not drawn) [Example 1.10] | 8.1
CC(=O)NC(C)CCc1ccc(C2CN(c3cccc(C(F)(F)F)n3)C2)cc1 (stereo not drawn) [Example 2.06] | 1.42
CC(=O)NC(C)Cc1ccc(C2CN(c3ncc(OCC4CC4(F)F)cc3F)C2)cc1 (stereo not drawn) [Example 1.30] | 0.74
CC(=O)N[C@@H](C)c1ccc(C2CN(c3ncc(C4CC4)cn3)C2)cc1 [Example 2.12] | 0.42
CC(=O)N[C@@H](C)c1ccc(C2CN(c3ccc(OCC4CC4)cc3)C2)cc1 [Example 1.23] | 0.38
COc1ccc(-c2cnc(N3CC(c4ccc([C@H](C)NC(C)=O)cc4)C3)nc2)cc1 [Example 2.08] | 0.32

The next lines start with the values.

IC50 [µM] | SMILES
0.53 | C[C@H](NC(=O)C(C)(F)F)c1ccc(C2CN(c3ccc(OCC4CC4)cc3)C2)cc1 [Example 3.88]
1.51 | CC(=O)N[C@@H](C)c1ccc(C2CN(c3nc(N(C)C)ncc3F)C2)cc1 [Example 4.3]
0.47 | Cc1nocc1C(=O)N[C@@H](C)c1ccc(C2CN(c3ccc(OCC4CC4)cc3)C2)cc1 [Example 3.87]
1.31 | Cc1ncc(C(=O)N[C@@H](C)c2ccc(C3CN(c4ccc(OCC5CC5)cc4)C3)cc2)s1 [Example 3.40]
1.22 | CC(Cc1ccc(C2CN(c3ccc(OCC4CC4)cc3)C2)cc1)NC(=O)C1(C)CC1 (stereo not drawn) [Example 3.63]
3.13 | CCC(=O)NC(C)Cc1ccc(C2CN(c3ccc4c(c3)OCCO4)C2)cc1 (stereo not drawn) [Example 3.83]
0.38 | C[C@H](NC(=O)C1CC=CC1)c1ccc(C2CN(c3ccc(OCC4CC4)cc3)C2)cc1 [Example 3.03]
0.54 | CC(=O)N[C@@H](C)c1ccc(C2CN(c3ncnc(OCC4CC4(F)F)c3F)C2)cc1 (stereo partly drawn) [Example 5.6]
1.07 | C=CCC(=O)NC(C)Cc1ccc(C2CN(c3ccc(OCC4CC4)cc3)C2)cc1 (stereo not drawn) [Example 3.06]
2.49 | C[C@H](NC(=O)c1ccon1)c1ccc(C2CN(c3ccc4c(c3)OCCO4)C2)cc1 [Example 3.73]
0.38 | CC(=O)N[C@@H](C)c1ccc(C2CN(c3ncnc(OCC4CC4)c3Cl)C2)cc1 [Example 5.5]
3.07 | CCCC(=O)NC(C)Cc1ccc(C2CN(c3ccc(OCC4CC4)cc3)C2)cc1 (stereo not drawn) [Example 3.08]
0.89 | CCC(=O)NC(C)Cc1ccc(C2CN(c3ccc(OCC4CC4)cc3)C2)cc1 (stereo not drawn) [Example 3.10]
1.45 | CC(=O)N[C@@H](C)c1ccc(C2CN(c3ccnc(OCC4CC4(F)F)c3F)C2)cc1 (stereo partly drawn) [Example 5.1, N-((1S)-1-(4-(1-(2-((2,2-difluorocyclopropyl)methoxy)-3-fluoropyridin-4-yl)azetidin-3-yl)phenyl)ethyl)acetamide]
2.82 | Cc1oncc1C(=O)NC(C)Cc1ccc(C2CN(c3ccc4c(c3)OCCO4)C2)cc1 (stereo not drawn) [Example 3.76]
2.17 | COCC(=O)N[C@@H](C)c1ccc(C2CN(c3ccc(OCC4CC4)cc3)C2)cc1 [Example 3.50]
1.17 | Cc1cc(CC(=O)N[C@@H](C)c2ccc(C3CN(c4ccc(OCC5CC5)cc4)C3)cc2)on1 [Example 3.60]
0.7 | C[C@H](NC(=O)C1CC1)c1ccc(C2CN(c3ccc(OCC4CC4)cc3)C2)cc1 [Example 3.56]
2.58 | CCOCC(=O)N[C@@H](C)c1ccc(C2CN(c3ccc(OCC4CC4)cc3)C2)cc1 [Example 3.22]
3.08 | C[C@H](NC(=O)C(C)(C)O)c1ccc(C2CN(c3ccc(OCC4CC4)cc3)C2)cc1 [Example 3.75]
0.25 | CC(=O)Nc1nc(C)c(C(=O)N[C@@H](C)c2ccc(C3CN(c4ccc(OCC5CC5)cc4)C3)cc2)s1 [Example 3.04]

IC50 [µM] | SMILES
1.59 | CC(=O)N[C@@H](C)c1ccc(C2CN(c3ccnc(OCC4CC4)c3)C2)cc1 [Example 5.3]
1.45 | CC(Cc1ccc(C2CN(c3ccc(OCC4CC4)cc3)C2)cc1)NC(=O)C(C)(F)F (stereo not drawn) [Example 3.11]
0.62 | C[C@H](NC(=O)c1cnn(C)c1)c1ccc(C2CN(c3ccc(OCC4CC4)cc3)C2)cc1 [Example 3.90]
0.4 | CC(=O)N[C@@H](C)c1ccc(C2CN(c3ncnc(OCC4CC4)c3F)C2)cc1 [Example 5.7]
2.36 | CC(=O)Nc1nc(C(=O)N[C@@H](C)c2ccc(C3CN(c4ccc(OCC5CC5)cc4)C3)cc2)co1 [Example 3.54]
0.96 | Cc1oncc1C(=O)NC(C)Cc1ccc(C2CN(c3ccc(OCC4CC4)cc3)C2)cc1 (stereo not drawn) [Example 3.74]
2.57 | Cc1ccc(C(=O)N[C@@H](C)c2ccc(C3CN(c4ccc(OCC5CC5)cc4)C3)cc2)o1 [Example 3.43]
1.22 | CC(=O)N[C@@H](C)c1ccc(C2CN(c3ccnc(OCC(F)F)c3)C2)cc1 [Example 5.2]
1.05 | CC(=O)Nc1nc(C)c(C(=O)NC(C)Cc2ccc(C3CN(c4ccc(OCC5CC5)cc4)C3)cc2)s1 (stereo not drawn) [Example 3.15]
2.51 | CC(Cc1ccc(C2CN(c3ccc(OCC4CC4)cc3)C2)cc1)NC(=O)C(C)F (stereo not drawn) [Example 3.09]
1.65 | C[C@H](NC(=O)c1cncs1)c1ccc(C2CN(c3ccc4c(c3)OCCO4)C2)cc1 [Example 3.57]
0.71 | C[C@H](NC(=O)c1cnco1)c1ccc(C2CN(c3ccc(OCC4CC4)cc3)C2)cc1 [Example 3.52]
0.33 | Cc1oncc1C(=O)N[C@@H](C)c1ccc(C2CN(c3ccc(OCC4CC4)cc3)C2)cc1 [Example 3.01, (S)—N-(1-(4-(1-(4-(cyclopropylmethoxy)phenyl)azetidin-3-yl)phenyl)ethyl)-5-methylisoxazole-4-carboxamide]
1.15 | C[C@H](NC(=O)C(C)(C)F)c1ccc(C2CN(c3ccc(OCC4CC4)cc3)C2)cc1 [Example 3.46]
2.07 | CC(=O)NCCCC(=O)N[C@@H](C)c1ccc(C2CN(c3ccc(OCC4CC4)cc3)C2)cc1 [Example 3.41]
2.86 | C[C@H](NC(=O)C1CCCCO1)c1ccc(C2CN(c3ccc(OCC4CC4)cc3)C2)cc1 (stereo partly drawn) [Example 3.27]
2.44 | C[C@H](NC(=O)CCO)c1ccc(C2CN(c3ccc(OCC4CC4)cc3)C2)cc1 [Example 3.80]
3.05 | CC(Cc1ccc(C2CN(c3ccc(OCC4CC4)cc3)C2)cc1)NC(=O)CCC#N (stereo not drawn) [Example 3.18]
1.82 | CC(=O)N[C@@H](C)c1ccc(C2CN(c3ccnc(N(C)CC(F)F)n3)C2)cc1 [Example 4.1, (S)—N-(1-(4-(1-(2-((2,2-difluoroethyl)(methyl)amino)pyrimidin-4-yl)azetidin-3-yl)phenyl)ethyl)acetamide]
2.46 | C[C@H](NC(=O)C1CC1)c1ccc(C2CN(c3ccc4c(c3)OCCO4)C2)cc1 [Example 3.64]
